Assay results: patent publication US20100112061A1, “Monophosphates as Mutual Prodrugs of Muscarinic Receptor Antagonists and Beta-Agonists for the Treatment of COPD And Chronic Bronchitis” (priority 2006, published 2010)

How the values were obtained:
alkaline phosphatase = alkaline phosphatase (Homo sapiens, UniProt P05187); assay: Conversion of the mutual MRA-β-agonist prodrug to salmeterol and MRA after exposure to alkaline phosphatase in vitro (LCMS); assay type: in vitro ADME; details: for Example 29 (GS-343071) in ALP (Peak Area Ratio) Normalized / Example 29 (GS-343071) in ALP (Peak Area Ratio) mean / Formation of dipeptide (Sagara 2006) in ALP (Peak Area Ratio) Normalized / Formation of dipeptide (Sagara 2006) in ALP (Peak Area Ratio) mean: alkaline phosphatase; for Formation of dipeptide (Sagara 2006) in ALP (Peak Area Ratio) Normalized / Formation of dipeptide (Sagara 2006) in ALP (Peak Area Ratio) mean: from prodrug Example 29
Chain of alkaline phosphatase (P05187 23-506 limits assumed): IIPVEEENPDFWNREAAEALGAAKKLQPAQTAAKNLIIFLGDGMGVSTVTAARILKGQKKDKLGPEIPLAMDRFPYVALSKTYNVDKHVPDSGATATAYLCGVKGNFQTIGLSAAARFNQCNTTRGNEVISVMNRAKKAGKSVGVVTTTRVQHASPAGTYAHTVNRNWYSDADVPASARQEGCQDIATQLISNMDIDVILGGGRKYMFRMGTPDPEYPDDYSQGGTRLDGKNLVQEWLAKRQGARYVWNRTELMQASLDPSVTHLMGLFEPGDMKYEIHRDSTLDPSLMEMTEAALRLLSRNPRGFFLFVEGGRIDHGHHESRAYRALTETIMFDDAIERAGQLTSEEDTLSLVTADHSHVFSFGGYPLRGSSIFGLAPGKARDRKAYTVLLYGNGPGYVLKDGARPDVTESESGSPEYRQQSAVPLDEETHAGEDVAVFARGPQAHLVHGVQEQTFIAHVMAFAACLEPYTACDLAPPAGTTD
Procedure: Conversion of the Mutual MRA-β-Agonist Prodrug (Described in Example 29) to Salmeterol and MRA after Exposure to Alkaline Phosphatase In Vitro
(§1) Reaction Buffer (pH 7.4, 5 mM tris/1 mM Mg^2+/1 mM Zn^2+)
(§2) Diluted 5 ml of 50 mM tris stock, 1 ml of 50 mM MgCl2 stock, and 1 ml of ZnCl2 and then stocked to 10 ml with water.
Alkaline Phosphatase Stock Solution […]
Dissolved ˜2 mg of the mutual prodrug of invention in 10 ml 1:1 acetonitrile/water.
Reaction Product Stock Solution
Dissolved ˜2 mg of each MRA and β-agonist in 20 ml 1:1 acetonitrile/water
The stock solutions were mixed in microcentrifuge tubes, as depicted in the following Table:
(§3) The heat block was set at the 37 degrees. Then 0.5 mL of alkaline phosphatase solution was added into 4 preheated Eppendorf tubes. The aliquot 0.5 of prodrug and drug standards were added into preheated Eppendorf tubes. Immediately after vortexing the aliquots of 25 μL of the all reaction solutions were made into the respective 96-well plate positions. The internal standard (75 μl of 500 ng/mL Glyburide) was added into all samples after each aliquots. That procedure was repeated at every 15 minute intervals for ˜4-5 hrs.
The 96-well plates were then analyzed using the LCMS technique.
Half Life Calculation (t1/2)
(§4) In the calculation of half life, we assumed that the disappearance of the mutual prodrug of this invention followed first order kinetics. Therefore,
(§5) The area peak ratio of prodrug vs IS was plotted against time first; the peak area ratios of later time points were normalized with the peak area ratio of initial time point (ASAP). The natural log of the normalized ratio was then plotted against time to generate a linear curve. The slope of this linear curve k was used for the following calculation.
Graphic plotted rate constant of loss K
Drug Concentration Determination
Drug concentrations are calculated by normalizing the peak area ration to (t 0). Thus, calculated drug concentrations at any time point=normalized peak area ratio [t (0) mean/t mean]×initial drug concentration. Data (normalized peak area ratio) for the calculations of drug concentrations are listed in Table 1 and 2 for compounds in Example 29 (GS343071), salmeterol, and the dipeptide (M3 antagonist prepared by Sagara 2006).

[1] = Half life of the prodrug in reaction buffer only (no alkaline phosphatase); assay type: physicochemical; details: reaction buffer without alkaline phosphatase; reaction buffer pH 7.4, no alkaline phosphatase
Procedure: as §1, §2
as §3, with “Then 0.5 mL of alkaline phosphatase solution was added into 4 preheated Eppendorf tubes.” left out
as §4, §5

## C[N+]1(Cc2cc(C(O)CNCCCCCCOCCCCc3ccccc3)ccc2OP(=O)(O)O)CCC(CNC(=O)[C@H]2CCCN2C(=O)[C@@H]2C[C@@H](O)CN2C(=O)CC(c2ccc(F)cc2)(c2ccc(F)cc2)c2ccc(F)cc2)CC1 (stereo partly drawn) [Example 29, 1-(5-{1-Hydroxy-2-[6-(4-phenyl-butoxy)-hexylamino]-ethyl}-2-phosphonooxy-benzyl)-4-{[(1-{4-hydroxy-1-[3,3,3-tris-(4-fluoro-phenyl)-propionyl]-pyrrolidine-(S)-2-carbonyl}-pyrrolidine-(R)-2-carbonyl)-amino]-methyl}-1-methyl-piperidinium]
Alkaline phosphatase; ALP Enzyme Conc. 0.224 mg/mL, 37 degrees, first order kinetics assumed
  Half Life t1/2: 95.0 min
Alkaline phosphatase; Added Compound Initial Conc. 86.6 μM in Reaction Mixture, ALP Enzyme Conc. 0.443 mg/mL
  Calculated Compound Final Conc. (μM) at 270 mins.: 7.8 µM
Alkaline phosphatase; Time 0 mins, 37 degrees
  Example 29 (GS-343071) in ALP (Peak Area Ratio) Normalized: 1.0000
  Example 29 (GS-343071) in ALP (Peak Area Ratio) mean: 0.2030
Alkaline phosphatase; Time 15.0 mins, 37 degrees
  Example 29 (GS-343071) in ALP (Peak Area Ratio) Normalized: 0.5887
  Example 29 (GS-343071) in ALP (Peak Area Ratio) mean: 0.1195
Alkaline phosphatase; Time 30.0 mins, 37 degrees
  Example 29 (GS-343071) in ALP (Peak Area Ratio) Normalized: 0.4340
  Example 29 (GS-343071) in ALP (Peak Area Ratio) mean: 0.0881
Alkaline phosphatase; Time 45.0 mins, 37 degrees
  Example 29 (GS-343071) in ALP (Peak Area Ratio) Normalized: 0.3313
  Example 29 (GS-343071) in ALP (Peak Area Ratio) mean: 0.0673
Alkaline phosphatase; Time 60.0 mins, 37 degrees
  Example 29 (GS-343071) in ALP (Peak Area Ratio) Normalized: 0.2850
  Example 29 (GS-343071) in ALP (Peak Area Ratio) mean: 0.0579
Alkaline phosphatase; Time 75.0 mins, 37 degrees
  Example 29 (GS-343071) in ALP (Peak Area Ratio) Normalized: 0.2387
  Example 29 (GS-343071) in ALP (Peak Area Ratio) mean: 0.0485
Alkaline phosphatase; Time 90.0 mins, 37 degrees
  Example 29 (GS-343071) in ALP (Peak Area Ratio) Normalized: 0.2079
  Example 29 (GS-343071) in ALP (Peak Area Ratio) mean: 0.0422
Alkaline phosphatase; Time 105 mins, 37 degrees
  Example 29 (GS-343071) in ALP (Peak Area Ratio) Normalized: 0.2017
  Example 29 (GS-343071) in ALP (Peak Area Ratio) mean: 0.0410
Alkaline phosphatase; Time 120 mins, 37 degrees
  Example 29 (GS-343071) in ALP (Peak Area Ratio) Normalized: 0.1788
  Example 29 (GS-343071) in ALP (Peak Area Ratio) mean: 0.0363
Alkaline phosphatase; Time 135 mins, 37 degrees
  Example 29 (GS-343071) in ALP (Peak Area Ratio) Normalized: 0.1643
  Example 29 (GS-343071) in ALP (Peak Area Ratio) mean: 0.0334
Alkaline phosphatase; Time 150 mins, 37 degrees
  Example 29 (GS-343071) in ALP (Peak Area Ratio) Normalized: 0.1397
  Example 29 (GS-343071) in ALP (Peak Area Ratio) mean: 0.0284
Alkaline phosphatase; Time 165 mins, 37 degrees
  Example 29 (GS-343071) in ALP (Peak Area Ratio) Normalized: 0.1310
  Example 29 (GS-343071) in ALP (Peak Area Ratio) mean: 0.0266
Alkaline phosphatase; Time 180 mins, 37 degrees
  Example 29 (GS-343071) in ALP (Peak Area Ratio) Normalized: 0.1372
  Example 29 (GS-343071) in ALP (Peak Area Ratio) mean: 0.0279
Alkaline phosphatase; Time 210 mins, 37 degrees
  Example 29 (GS-343071) in ALP (Peak Area Ratio) Normalized: 0.1163
  Example 29 (GS-343071) in ALP (Peak Area Ratio) mean: 0.0236
Alkaline phosphatase; Time 240 mins, 37 degrees
  Example 29 (GS-343071) in ALP (Peak Area Ratio) Normalized: 0.0978
  Example 29 (GS-343071) in ALP (Peak Area Ratio) mean: 0.0199
Alkaline phosphatase; Time 270 mins, 37 degrees
  Example 29 (GS-343071) in ALP (Peak Area Ratio) Normalized: 0.0906
  Example 29 (GS-343071) in ALP (Peak Area Ratio) mean: 0.0184
Alkaline phosphatase; human, pH 7.4, ALP Enzyme Conc. 0.224 mg/mL, 37 degrees, first order kinetics assumed, read-out: Half Life t1/2
  half-life: 62.4 min
Alkaline phosphatase; human, pH 7.4, ALP Enzyme Conc. 0.443 mg/mL, 37 degrees, first order kinetics assumed, read-out: Half Life t1/2
  half-life at 86.6 μM: 43.2 min
[1]
  half-life: 770 min

## CN1CCC(CNC(=O)[C@H]2CCCN2C(=O)[C@@H]2CC(O)CN2C(=O)CC(c2ccc(F)cc2)(c2ccc(F)cc2)c2ccc(F)cc2)CC1 (stereo partly drawn) [dipeptide (Sagara 2006), 1-{4-hydroxy-1-[3,3,3-tris-(4-fluoro-phenyl)-propionyl]-pyrrolidine-(S)-2-carbonyl}-pyrrolidine-(R)-2-carboxylic acid-(1-methyl-piperidin-4-ylmethyl)-amide, reference compound]
Alkaline phosphatase; Time 0 mins, 37 degrees
  Formation of dipeptide (Sagara 2006) in ALP (Peak Area Ratio) Normalized: 1.0000
  Formation of dipeptide (Sagara 2006) in ALP (Peak Area Ratio) mean: 0.1765
Alkaline phosphatase; Time 15.0 mins, 37 degrees
  Formation of dipeptide (Sagara 2006) in ALP (Peak Area Ratio) Normalized: 1.9830
  Formation of dipeptide (Sagara 2006) in ALP (Peak Area Ratio) mean: 0.3500
Alkaline phosphatase; Time 30.0 mins, 37 degrees
  Formation of dipeptide (Sagara 2006) in ALP (Peak Area Ratio) Normalized: 2.7365
  Formation of dipeptide (Sagara 2006) in ALP (Peak Area Ratio) mean: 0.4830
Alkaline phosphatase; Time 45.0 mins, 37 degrees
  Formation of dipeptide (Sagara 2006) in ALP (Peak Area Ratio) Normalized: 2.7989
  Formation of dipeptide (Sagara 2006) in ALP (Peak Area Ratio) mean: 0.4940
Alkaline phosphatase; Time 60.0 mins, 37 degrees
  Formation of dipeptide (Sagara 2006) in ALP (Peak Area Ratio) Normalized: 3.0595
  Formation of dipeptide (Sagara 2006) in ALP (Peak Area Ratio) mean: 0.5400
Alkaline phosphatase; Time 75.0 mins, 37 degrees
  Formation of dipeptide (Sagara 2006) in ALP (Peak Area Ratio) Normalized: 3.2210
  Formation of dipeptide (Sagara 2006) in ALP (Peak Area Ratio) mean: 0.5685
Alkaline phosphatase; Time 90.0 mins, 37 degrees
  Formation of dipeptide (Sagara 2006) in ALP (Peak Area Ratio) Normalized: 3.6402
  Formation of dipeptide (Sagara 2006) in ALP (Peak Area Ratio) mean: 0.6425
Alkaline phosphatase; Time 105 mins, 37 degrees
  Formation of dipeptide (Sagara 2006) in ALP (Peak Area Ratio) Normalized: 3.8612
  Formation of dipeptide (Sagara 2006) in ALP (Peak Area Ratio) mean: 0.6815
Alkaline phosphatase; Time 120 mins, 37 degrees
  Formation of dipeptide (Sagara 2006) in ALP (Peak Area Ratio) Normalized: 3.9207
  Formation of dipeptide (Sagara 2006) in ALP (Peak Area Ratio) mean: 0.6920
Alkaline phosphatase; Time 135 mins, 37 degrees
  Formation of dipeptide (Sagara 2006) in ALP (Peak Area Ratio) Normalized: 4.0793
  Formation of dipeptide (Sagara 2006) in ALP (Peak Area Ratio) mean: 0.7200
Alkaline phosphatase; Time 150 mins, 37 degrees
  Formation of dipeptide (Sagara 2006) in ALP (Peak Area Ratio) Normalized: 4.2890
  Formation of dipeptide (Sagara 2006) in ALP (Peak Area Ratio) mean: 0.7570
Alkaline phosphatase; Time 165 mins, 37 degrees
  Formation of dipeptide (Sagara 2006) in ALP (Peak Area Ratio) Normalized: 4.4193
  Formation of dipeptide (Sagara 2006) in ALP (Peak Area Ratio) mean: 0.7800
Alkaline phosphatase; Time 180 mins, 37 degrees
  Formation of dipeptide (Sagara 2006) in ALP (Peak Area Ratio) Normalized: 4.7082
  Formation of dipeptide (Sagara 2006) in ALP (Peak Area Ratio) mean: 0.8310
Alkaline phosphatase; Time 210 mins, 37 degrees
  Formation of dipeptide (Sagara 2006) in ALP (Peak Area Ratio) Normalized: 5.0227
  Formation of dipeptide (Sagara 2006) in ALP (Peak Area Ratio) mean: 0.8865
Alkaline phosphatase; Time 240 mins, 37 degrees
  Formation of dipeptide (Sagara 2006) in ALP (Peak Area Ratio) Normalized: 5.0567
  Formation of dipeptide (Sagara 2006) in ALP (Peak Area Ratio) mean: 0.8925
Alkaline phosphatase; Time 270 mins, 37 degrees
  Formation of dipeptide (Sagara 2006) in ALP (Peak Area Ratio) Normalized: 5.6997
  Formation of dipeptide (Sagara 2006) in ALP (Peak Area Ratio) mean: 1.0060
